Values quoted from earlier work in US20230345942A1, “CORONA VIRUS KILLING AGENT” (SANKEI CO., LTD., priority 2020, published 2023).

Experiments:
Influenza = tested on: Influenza; set-up: key: ◯ Effective; ∇ Low efficacy; ⊚ Effective even in the presence of organic matter
Norovirus (alternative) = tested on: Norovirus (alternative); set-up: key: ◯ Effective; ∇ Low efficacy; ⊚ Effective even in the presence of organic matter
Novel coronavirus = tested on: Novel coronavirus; set-up: key: ◯ Effective; ∇ Low efficacy; ⊚ Effective even in the presence of organic matter
[1] = as qualified in the cell (undiluted solution / at usage concentration)

Structure (SMILES)	Antibacterial/fungal activity (bacteria, fungi)	Antiviral activity: Influenza (Influenza)	Antiviral activity: Norovirus (alternative) (Norovirus (alternative))	Antiviral activity: Novel coronavirus (Novel coronavirus)	Safety [1]	Concentration required for an inactivation effect on enveloped viruses (enveloped viruses)
CCO [Disinfecting ethanol, Ethanol]	Broad range	◯	∇	◯	Flammable	
OCl [Sodium hypochlorite]	Broad range	◯	◯	◯	hazardous	
CCO [alcohol]						≥ 70 % (v/v)
